In patent publication US6849578B1, “Selective herbicides based on 2,6-disubstituted pyridine derivatives” (Bayer Aktiengesellschaft, priority 1999, dated 2005):

Assays:
Assay type in all cases: in vivo
Lactuca = assay: Outdoor trials in cereal, post-emergence spring, herbicidal activity; conditions: about 8-10 weeks after application
From the text: (§1) The expected activity for a given combination of two herbicides can be calculated as follows (cf. COLBY, S. R.: “Calculating synergistic and antagonistic responses of herbicide combinations”, Weeds 15, pages 20-22, 1967): • If X=% damage by herbicide A (active compound of the formula (I) at an application rate of p kg/ha • and Y=% damage by herbicide B (active compound of the formula II) at an application rate of q kg/ha • and E=the expected damage of the herbicides A and B at application rates of p and q kg/ha, • then E=X+Y−(X*Y/100).
(§2) To examine a possible synergism, the compounds picolinafen and propoxycarbazone-sodium were tested under outdoor conditions in cereal against economically important weed grasses. The small-plot experiments were conducted on areas used for agricultural cultivation.
(§3) The active compounds were applied in spring by the post-emergence method and over the entire area, using spray application with a medium droplet size. To prepare an advantageous preparation of active compound, the active compounds were formulated as 70 WG (70% w/w water-dispersible powder) or 75 WG (75% w/w water-dispersible powder) and suspended in water. The spray liquor was then applied in a water application rate customarily used in practice.
(§4) About 8-10 weeks after the application of the spray liquor, the herbicidal activity was scored visually. The figures denote: • 0%=no herbicidal effect, • 100%=total destruction of the crop or the weeds.

Matricaria ch. = assay: as above; conditions: about 8-10 weeks after application
From the text: as §1, §2, §3, §4

Galium = assay: as above; conditions: about 8-10 weeks after application
From the text: as §1, §2, §3, §4

Legousia = assay: as above; conditions: about 8-10 weeks after application
From the text: as §1, §2, §3, §4

Matricaria in. = assay: as above; conditions: about 8-10 weeks after application
From the text: as §1, §2, §3, §4

Stellaria = assay: as above; conditions: about 8-10 weeks after application
From the text: as §1, §2, §3, §4

Avenua = assay: Post-emergence greenhouse test, % damage; conditions: after about 3 weeks
From the text: as §1
(§5) Customary formulations of the active compounds in question were used. Propoxycarbazone-sodium was used as 70 WG, flufenacet as 60 WG and picolinafen as 75 WG formulation. From the active compounds, an aqueous spray liquor containing 0.1% of the additive Renex-36 was prepared.
(§6) Test plants are grown in a greenhouse under controlled conditions (temperature and light conditions). When the plants have reached a height of 5 to 15 cm, they are sprayed with the test solution. The concentration of the spray liquor is chosen such that the particular amounts of active compound desired are applied in 500 l of water/ha.
(§7) After the spray treatment, the plant containers are stored in a greenhouse at constant light and temperature conditions.
(§8) After about 3 weeks, the degree of damage to the crop plants is rated in % damage in comparison to the development of the untreated control.
(§9) The figures denote: • 0%=no damage (like untreated control) • 100%=total destruction/damage

Viola = assay: Post-emergence greenhouse test, % damage; conditions: Table A-6, after about 3 weeks
From the text: as §1, §5, §6, §7, §8, §9

Cassia = assay: Post-emergence greenhouse test, % damage; conditions: Table A-4, after about 3 weeks
From the text: as §1, §5, §6, §7, §8, §9

Ipomoea = assay: Post-emergence greenhouse test, % damage; conditions: Table A-5, after about 3 weeks
From the text: as §1, §5, §6, §7, §8, §9

Echinochloa = assay: Post-emergence greenhouse test, % damage; conditions: Table A-3, after about 3 weeks
From the text: as §1, §5, §6, §7, §8, §9

Digitaria = assay: Post-emergence greenhouse test, % damage; conditions: Table A-2, after about 3 weeks
From the text: as §1, §5, §6, §7, §8, §9

For `CCCOc1nn(C(=O)NS(=O)(=O)c2ccccc2C(=O)OC)c(=O)n1C.[Na]` [propoxycarbazone-sodium, methyl 2-[[[(4,5-dihydro-4-methyl-5-oxo-3-propoxy-1H-1,2,4-triazol-1-yl)carbonyl]-amino]-sulphonyl]-benzoate sodium salt], which Lactuca observed (Lactuca; 42 g of ai/ha) is on record?
The Lactuca observed was 10%.

And the “Matricaria ch. observed 1st location” value (Matricaria ch.; 42 g of ai/ha)?
The value was 60%.

What about the “Matricaria ch. observed 2nd location” value (Matricaria ch.; 42 g of ai/ha) of the same compound?
Its value is 10%.

What about the Galium observed (Galium; 42 g of ai/ha) of the same compound?
Its Galium observed is 0%.

And the Legousia observed (Legousia; 42 g of ai/ha)?
The Legousia observed was 0%.

What about the Matricaria in. observed (Matricaria in.; 42 g of ai/ha) of the same compound?
The Matricaria in. observed was 75%.

What about the Stellaria observed (Stellaria; 42 g of ai/ha) of the same compound?
Its Stellaria observed is 30%.

What about the Avenua observed (Avenua; 15 g of ai/ha, Table A-7) of the same compound?
Its Avenua observed is 50%.

And the Avenua observed (Avenua; 15 g of ai/ha, Table A-8)?
Its Avenua observed is 0%.

And the Avenua observed (Avenua; 15 g of ai/ha, Table A-9)?
Its Avenua observed is 0%.

And the Avenua observed (Avenua; 30 g of ai/ha, Table A-7)?
The Avenua observed was 50%.

And the Avenua observed (Avenua; 30 g of ai/ha, Table A-8)?
Its Avenua observed is 20%.

And the Avenua observed (Avenua; 30 g of ai/ha, Table A-9)?
The Avenua observed was 0%.

And the Avenua observed (Avenua; 60 g of ai/ha, Table A-7)?
The Avenua observed was 60%.

And the Avenua observed (Avenua; 60 g of ai/ha, Table A-9)?
Its Avenua observed is 0%.

For `CC(C)N(C(=O)COc1nnc(C(F)(F)F)s1)c1ccc(F)cc1` [flufenacet, N-isopropyl-N-(4-fluorophenyl)-(5-trifluoromethyl-1,3,4-thiadiazol-2-yl-oxy)-acetamide], which Viola observed (Viola; 60 g of ai/ha) is on record?
The Viola observed was 0%.

And the Cassia observed (Cassia; 125 g of ai/ha)?
The Cassia observed was 0%.

What about the Ipomoea observed (Ipomoea; 60 g of ai/ha) of the same compound?
The Ipomoea observed was 30%.

And the Ipomoea observed (Ipomoea; 125 g of ai/ha)?
The Ipomoea observed was 30%.

What about the Echinochloa observed (Echinochloa; 60 g of ai/ha) of the same compound?
Its Echinochloa observed is 60%.

What about the Digitaria observed (Digitaria; 60 g of ai/ha) of the same compound?
The Digitaria observed was 0%.

What about the Digitaria observed (Digitaria; 125 g of ai/ha) of the same compound?
The Digitaria observed was 10%.

And the Avenua observed (Avenua; 30 g of ai/ha, Table A-1)?
Its Avenua observed is 10%.

What about the Avenua observed (Avenua; 60 g of ai/ha, Table A-1) of the same compound?
Its Avenua observed is 10%.

Which results are given for `O=C(Nc1ccc(F)cc1)c1cccc(Oc2cccc(C(F)(F)F)c2)n1` [picolinafen, N-(4-fluorophenyl)-6-[3-(trifluoromethyl)phenoxy]-2-pyridinecarboxamide]?
Lactuca observed (Lactuca; 75 g of ai/ha): 0%; Matricaria ch. observed 1st location (Matricaria ch.; 75 g of ai/ha): 0%; Matricaria ch. observed 2nd location (Matricaria ch.; 75 g of ai/ha): 0%; Galium observed (Galium; 75 g of ai/ha): 30%; Legousia observed (Legousia; 75 g of ai/ha): 0%; Matricaria in. observed (Matricaria in.; 75 g of ai/ha): 45%; Stellaria observed (Stellaria; 75 g of ai/ha): 20%; Viola observed (Viola; 8 g of ai/ha): 90%; Cassia observed (Cassia; 30 g of ai/ha): 40%; Ipomoea observed (Ipomoea; 8 g of ai/ha): 70%; Ipomoea observed (Ipomoea; 15 g of ai/ha): 70%; Ipomoea observed (Ipomoea; 30 g of ai/ha): 70%; Echinochloa observed (Echinochloa; 8 g of ai/ha): 10%; Digitaria observed (Digitaria; 30 g of ai/ha): 50%; Avenua observed (Avenua; 8 g of ai/ha, Table A-1): 0%; Avenua observed (Avenua; 15 g of ai/ha, Table A-7): 10%; Avenua observed (Avenua; 15 g of ai/ha, Table A-8): 0%; Avenua observed (Avenua; 15 g of ai/ha, Table A-9): 70%; Avenua observed (Avenua; 30 g of ai/ha, Table A-1): 20%; Avenua observed (Avenua; 30 g of ai/ha, Table A-7): 20%; Avenua observed (Avenua; 30 g of ai/ha, Table A-8): 20%; Avenua observed (Avenua; 30 g of ai/ha, Table A-9): 70%
